In patent publication US8633219B2, “Combination therapy” (Japan Tobacco Inc., priority 2004, dated 2014):

Columns and labels:
HIV-1IIIB = assay: Drug combination anti-HIV-1 cytoprotection assay (MacSynergy II) in CEM-SS cells infected with HIV-1IIIB; assay type: cell-based; conditions: in combination with Compound A; for Antagonism Volume, Result 1 / Synergy Volume, Result 1 / Antagonism Volume, Result 2 / Synergy Volume, Result 2 / Antagonism Volume, Result 3 / Synergy Volume, Result 3: 95% confidence interval; for Antagonism Volume, Result 1 / Synergy Volume, Result 1: assay 1; for Antagonism Volume, Result 2 / Synergy Volume, Result 2: assay 2; for Antagonism Volume, Result 3 / Synergy Volume, Result 3: assay 3; for Mean Antagonism Volume / Mean Synergy Volume: n = 3
Experimental: This work was performed using the Prichard and Shipman MacSynergy II three-dimensional model for statistical evaluation of combination anti-HIV assays. Using a standard microtiter plate format, each combination assay was performed in CEM-SS T-lymphocytic cells acutely infected with the a laboratory-adapted strain, HIV-1IIIB, and viral growth/inhibition was evaluated by measuring by monitoring virus-induced cytopathic effects (CPE) at the experimental endpoint.
AZT was dissolved in sterile dH2O and the remainder of the control compounds were dissolved in DMSO for analysis in the combination assays. […] CEM-SS cells were passaged in T-75 flasks prior to use in the antiviral assay. On the day preceding the assay, the cells were split 1:2 to assure they were in an exponential growth phase at the time of infection. Total cell and viability quantification was performed using a hemacytometer and trypan blue exclusion.
The virus used for these tests was the lymphocytropic virus strain HIV-1IIIB. This virus was obtained from the NIH AIDS Research and Reference Reagent Program and was grown in CEM-SS cells for the production of stock virus pools. For each assay, a pre-titered aliquot of virus was removed from the freezer (−80° C.) and allowed to thaw slowly to room temperature in a biological safety cabinet. The virus was resuspended and diluted into tissue culture medium such that the amount of virus added to each well in a volume of 50 μl was the amount determined to give between 85 to 95% cell killing at 6 days post-infection.
(§1) The format of the test plate was standardized as follows. Each plate contains cell control wells (cells only), virus control wells (cells plus virus), drug cytotoxicity wells (cells plus drug only), drug colorimetric control wells (drug only), as well as experimental wells (drug plus cells plus virus). The final volume in each well was 200 μl.
At assay termination, the assay plates were stained with the soluble tetrazolium-based dye MTS (CellTiter96 Reagent, Promega) to determine cell viability and quantify compound toxicity. […] At termination of the assay, 20 μl of MTS reagent was added per well. The microtiter plates were then incubated 4-6 hrs at 37° C. for the HIV cytoprotection assay; the incubation intervals were chosen based on empirically determined times for optimal dye reduction. Adhesive plate sealers were used in place of the lids, the sealed plate was inverted several times to mix the soluble formazan product and the plate was read spectrophotometrically at 490/650 nm with a Molecular Devices Vmax plate reader.
Combination antiviral assays were performed with CEM-SS cells utilizing the HIV-1IIIB strain of virus as described above.
The expected additive antiviral protection was subtracted from the experimentally determined antiviral activity at each combination concentration resulting in a positive value (synergy), a negative value (antagonism), or zero (additivity). The results of the combination assays are presented three dimensionally at each combination concentration, yielding a surface of activity extending above (synergy) or below (antagonism) the plane of additivity. The volume of the surface is calculated and expressed as a synergy volume (μM^2%) calculated at the 95% confidence interval.
Slightly synergistic activity and highly synergistic activity have been defined as yielding synergy volumes of 50-100 μM^2% and >100 μM^2%, respectively.

CEM-SS cells = assay: Cellular cytotoxicity by MTS staining in the combination assay; assay type: cell-based; conditions: combinations with other anti-HIV agents; Compound A 4 nM high-test concentration
Experimental: as §1, with “μl. Samples were evaluated with triplicate measurements using a checkerboard dilution scheme; […]; antiviral efficacy and cellular cytotoxicity were monitored by MTS staining at the experimental endpoint.” for “μl.”
At assay termination, the assay plates were stained with the soluble tetrazolium-based dye MTS (CellTiter96 Reagent, Promega) to determine cell viability and quantify compound toxicity. MTS is metabolized by the mitochondrial enzymes of metabolically active cells to yield a soluble formazan product, allowing the rapid quantitative analysis of cell viability and compound cytotoxicity. […] The microtiter plates were then incubated 4-6 hrs at 37° C. for the HIV cytoprotection assay; the incubation intervals were chosen based on empirically determined times for optimal dye reduction. Adhesive plate sealers were used in place of the lids, the sealed plate was inverted several times to mix the soluble formazan product and the plate was read spectrophotometrically at 490/650 nm with a Molecular Devices Vmax plate reader.

Structure (SMILES) | Antagonism Volume, Result 1 (HIV-1IIIB) [μM^2%] | Synergy Volume, Result 1 (HIV-1IIIB) [μM^2%] | Antagonism Volume, Result 2 (HIV-1IIIB) [μM^2%] | Synergy Volume, Result 2 (HIV-1IIIB) [μM^2%] | Antagonism Volume, Result 3 (HIV-1IIIB) [μM^2%] | Synergy Volume, Result 3 (HIV-1IIIB) [μM^2%] | Mean Antagonism Volume (HIV-1IIIB) [μM^2%] | Mean Synergy Volume (HIV-1IIIB) [μM^2%] | synergistic cytotoxicity (CEM-SS cells)
Cc1cn([C@H]2C[C@H](N=[N+]=[N-])[C@@H](CO)O2)c(=O)[nH]c1=O [AZT, zidovudine] | −21 | 46 | −44 | 19 | −23 | 57 | −29.3 | 40.7 | –
COc1cc2c(cc1Cc1cccc(Cl)c1F)c(=O)c(C(=O)O)cn2[C@H](CO)C(C)C [Compound A, (S)-6-(3-Chloro-2-fluorobenzyl)-1-(1-hydroxymethyl-2-methylpropyl)-7-methoxy-4-oxo-1,4-dihydroquinoline-3-carboxylic acid] | – | – | – | – | – | – | – | – | no evidence of synergistic cytotoxicity
O=C1Nc2ccc(Cl)cc2[C@@](C#CC2CC2)(C(F)(F)F)O1 [EFV, efavirenz] | −9 | 26 | 0 | 54 | −7 | 26 | −5.3 | 35.3 | –
CC(C)(C)NC(=O)[C@@H]1CN(Cc2cccnc2)CCN1C[C@@H](O)C[C@@H](Cc1ccccc1)C(=O)N[C@H]1c2ccccc2C[C@H]1O [IDV, indinavir] | −7 | 57 | −23 | 13 | −26 | 10 | −18.7 | 26.7 | –
Cc1c(O)cccc1C(=O)N[C@@H](CSc1ccccc1)[C@H](O)CN1C[C@H]2CCCC[C@H]2C[C@H]1C(=O)NC(C)(C)C [NFV, nelfinavir] | −3 | 44 | −3 | 38 | −46 | 20 | −17.3 | 34. | –
C[C@H](Cn1cnc2c(N)ncnc21)OCP(=O)(O)O [PMPA, tenofovir] | −23 | 29 | −4 | 43 | −60 | 13 | −29.0 | 28.3 | –
